The subject of assay [1] is skeletal muscle cells. Conditions: cited from earlier work.
Assay [2] concerns L6 muscle cells. Nature of the assay: glucose uptake in L6 muscle cells (2-NBDG fluorescence). The format is cell-based. As to the method: The permeate portion of GMM was tested for glucose uptake in L6 muscle cells. L6 cells were grown as monolayers in Dulbecco's modified Eagle's medium (DMEM) containing 1 mM glutamine, 1 mM pyruvate and 25 mM glucose. The medium was supplemented with 5% fetal calf serum (FCS). Experiments were undertaken in 48-well plates seeded from pre-confluent flasks with 50 000 cells per well. The cells were grown to confluence and the medium was changed to DMEM containing 0.5% FCS and 2.5 mM glucose (L6 Myo Medium) for at least 76 hrs to induce differentiation of L6 cells and formation of L6 myotubes. Myotubes were then incubated with test substances for 30 minutes—Protocol SMM, or in Dulbecco's PBS supplemented with 20 mM Hepes and 2 mM glucose without serum—Serum-free Medium (SFM) Protocol as described by Fryer et al. ((Activation of glucose transport by AMP-activated protein kinase via stimulation of Nitric oxide synthase, Diabetes, 49(12), 1978-85, 2000, Fryer LGD, et al).
Next, 30 uM of 2-NBDG was added for 2 minutes at 22C. Subsequently, cell culture medium was removed and cells were washed twice with cold DPBS. Then, cells were lysed in 0.5% SDS. Fluorescence was measured at 466/542 nm (excitation/emission) using 100 ul of cell lysate in 2 ml of water.
Cells were cultured, and treated in L6 Myo Medium (SSM)—SSM Protocol or in serum-free medium (SFM-DPBS containing 20 mM Hepes, 2 mM glucose)—SFM Protoci as described by Fryer et al. Glucose uptake was measured by adding 30 uM of 2-NBDG for 2′ at 22C. Experiments were performed in duplicates.
L-NMMA has been used in the experiment to verify whether GMM-induced glucose transport in L6 cells is or is not inhibited by NOS inhibitors, thus mimicking AICAR—induced mechanism of increased glucose transport. Fryer's experimental set up was adopted, consisting of pre-treatment of cells with inhibitor for 30 minutes in DPBS and after that with agonists like AICAR or in our case GMM for next 30 minutes at 37C before performing glucose uptake.

“Also recorded” adds a separate entry of the source.

Consider `NC(=O)c1ncn([C@@H]2O[C@H](COP(=O)(O)O)[C@@H](O)[C@H]2O)c1N` [AICAR, 5′-aminoimidazole 4-carboxamide 1-ribonucleotide], for which, in assay [1] (skeletal muscle), the “effect on glucose uptake by pharmacological activation of AMPK” value was “increase in glucose uptake”.
For `NC(=O)c1[nH]cnc1N` [AICA], the “effect on glucose uptake” value in assay [2] (L6 cells, 30 minutes treatment, uptake 2 minutes at 22C) is “stimulation”.
Turning to `CC(=O)O.CNC(=N)NCCC[C@H](N)C(=O)O` [L-NMMA, NG-methyl-L-arginine, acetate salt], in assay [2] (L-NMMA 300 uM pre-treatment 30 minutes in DPBS, acetate salt), the “effect on permeate/GMM-induced glucose uptake” value is on record as “inhibits; also recorded: blocks”. The “effect on AICA-stimulated glucose uptake” value in assay [2] (pre-treatment with L-NMMA 30 minutes in DPBS, then AICA 30 minutes) is reported as “inhibition”. Further, the “effect on the increase of glucose transport after activation of AMPK” value in assay [1] (NOS inhibitors, skeletal muscle cells) is “completely blocks”.
As to insulin: insulin used to treat L6 cells, the glucose uptake increase in assay [2] (culture medium supplemented with 0.5% FCS (SSM), by average) is 100-120%; in assay [2] (serum-free medium (DPBS)) it was 40-50%.

These data come from patent US20040170705A1, “Compositions and methods for non-insulin glucose uptake” (priority 2001, published 2004).
